# Data taken from patent US20010031749A1, “Novel C-2 S/O-and S/N formaldehyde Acetal Derivatives of Carbapenem-3-carboxylic acids and their use as antibiotics and beta-lactamase inhibitors” (priority 1998, published 2001).
# Experiments:
# [1] = Stability in phosphate buffer (half-life of hydrolysis, UV method); assay type: physicochemical; conditions: for half-life: physiological phosphate buffer pH 7.4 and 37° C., UV method
# [2] = tested on: Escherichia coli TEM 1; assay: In vitro antibacterial activity, plate test (inhibition diameter); assay type: cell-based; conditions: 10 μg, Difco Nutrient Agar, 18 hrs at 37° C.
# Protocol: (§1) The tests were carried out in sterile polypropylene dishes (diameter 8.5 cm) containing 10 ml of Difco Nutrient Agar. Inhibition was recorded after 18 hrs at 37° C. (inoculum ca. […] cells).
# [3] = tested on: Staph. aureus Innsbruck; assay: as above; assay type: cell-based; conditions: 10 μg, Difco Nutrient Agar, 18 hrs at 37° C.
# Protocol: as §1
# [4] = tested on: Escherichia coli DSM 1103; assay: as above; assay type: cell-based; conditions: 10 μg, Difco Nutrient Agar, 18 hrs at 37° C.
# Protocol: as §1
# [5] = tested on: Staph. aureus DSM 1104; assay: as above; assay type: cell-based; conditions: 10 μg, Difco Nutrient Agar, 18 hrs at 37° C.
# Protocol: as §1
# [6] = tested on: Staph. aureus resistant; assay: as above; assay type: cell-based; conditions: 10 μg, Difco Nutrient Agar, 18 hrs at 37° C.
# Protocol: as §1
# [7] = tested on: Enterococcus; assay: as above; assay type: cell-based; conditions: 10 μg, Difco Nutrient Agar, 18 hrs at 37° C.
# Protocol: as §1
# [8] = tested on: Enterobacter cloacae DSM 30054; assay: as above; assay type: cell-based; conditions: 10 μg, Difco Nutrient Agar, 18 hrs at 37° C.
# Protocol: as §1
# [9] = tested on: Staph. aureus 25768; assay: as above; assay type: cell-based; conditions: 10 μg, Difco Nutrient Agar, 18 hrs at 37° C.
# Protocol: as §1
# [10] = tested on: Pseudomonas aer. resistant; assay: as above; assay type: cell-based, Pseudomonas aeruginosa; conditions: 10 μg, Difco Nutrient Agar, 18 hrs at 37° C.
# Protocol: as §1
# [11] = tested on: Pseudomonas aer. DSM 1117; assay: as above; assay type: cell-based, Pseudomonas aeruginosa; conditions: 10 μg, Difco Nutrient Agar, 18 hrs at 37° C.
# Protocol: as §1
# [12] = Oral activity: plasma level and half-life in mice after oral application; assay type: in vivo; conditions: mouse, dose 25 mg per kg, potassium salt
# [13] = molecular target: T1, β-Lactamase from Enterobacter cloacae (Enterobacter cloacae, UniProt P05364); assay: β-Lactamase inhibition against isolated (cell free) enzymes, nitrocefin method; assay type: biochemical; conditions: 37° C., 15 min preincubation of enzyme and inhibitor
# T1 construct: bacterial β-lactamases isolated from Enterobacter cloacae and Escherichia coli; host or cells: Enterobacter cloacae (enzyme isolated, cell free)
# From the text: (§2) Moreover, all tested ceftazidime resistant Gram-negative pathogens became susceptible to a combination of ceftazidime and the compounds according to the invention. Thus, these compounds are also very potent β-lactamase inhibitors. The very high activity as β-lactamase inhibitors of the compounds I according to the invention was also observed with isolated bacterial enzymes in the nitrocefin test (R. Reimer, Methodicum Chimicum: Antibiotics, Vitamins and Hormons; F. Korte, M. Goto, eds., Thieme, Stuttgart, 1977, p.11, E. Wasielewski, Arzneimittel, Vol. 4; Chemotherapeutica, Part 1, Verlag Chemie, Weinheim 1972).
# (§3) IC50 values were determined in a 1 cm UV cell at 37° C. after a 15 min preincubation period of enzyme and the inhibitor.
# [14] = molecular target: T2, Penicillinase from E. coli TEM 1 (Escherichia coli, UniProt P62593); assay: as above; assay type: biochemical
# T2 construct: bacterial β-lactamases isolated from Enterobacter cloacae and Escherichia coli; host or cells: Escherichia coli (enzyme isolated, cell free)
# From the text: as §2, §3
# [15] = tested on: Sacharomyces cerevisiae; assay: Cytotoxicity, agar diffusion method; assay type: cell-based; conditions: 1.0 mg, yeast and mold agar, 16 hrs at 30° C.
# Protocol: Sterile PP dishes of 8.5 cm diameter containing 10 ml of yeast and mold agar were used. Cytotoxicity was recorded after a 16 hrs incubation period at 30° C. (inoculum approx. 10^5 cells).
# [16] = tested on: E. coli EC 225; assay: β-Lactamase inhibition activity against resistant bacteria (MIC of ceftazidime without and with Ia); assay type: cell-based; conditions: Escherichia coli, EC225, enzyme TEM-5, read-out: MIC, CAZ alone
# [17] = tested on: E. cloacae EB 131; assay: as above; assay type: cell-based; conditions: Enterobacter cloacae, EB131, enzyme Type 1 Ceph'ase, read-out: MIC, CAZ alone
# [18] = tested on: K. pneumoniae KL 141; assay: as above; assay type: cell-based; conditions: Klebsiella pneumoniae, KL141, enzyme CAZ-ase, read-out: MIC, CAZ alone
# [19] = tested on: E. coli EC 228; assay: as above; assay type: cell-based; conditions: Escherichia coli, EC228, enzyme CAZ-ase, read-out: MIC, CAZ alone
# [20] = tested on: K. pneumoniae KL 140; assay: as above; assay type: cell-based; conditions: Klebsiella pneumoniae, KL140, enzyme CAZ-ase, read-out: MIC, CAZ alone
# [21] = tested on: E. coli EC 227; assay: as above; assay type: cell-based; conditions: Escherichia coli, EC227, enzyme CAZ-ase, read-out: MIC, CAZ alone
# T1 sequence (P05364 21-381): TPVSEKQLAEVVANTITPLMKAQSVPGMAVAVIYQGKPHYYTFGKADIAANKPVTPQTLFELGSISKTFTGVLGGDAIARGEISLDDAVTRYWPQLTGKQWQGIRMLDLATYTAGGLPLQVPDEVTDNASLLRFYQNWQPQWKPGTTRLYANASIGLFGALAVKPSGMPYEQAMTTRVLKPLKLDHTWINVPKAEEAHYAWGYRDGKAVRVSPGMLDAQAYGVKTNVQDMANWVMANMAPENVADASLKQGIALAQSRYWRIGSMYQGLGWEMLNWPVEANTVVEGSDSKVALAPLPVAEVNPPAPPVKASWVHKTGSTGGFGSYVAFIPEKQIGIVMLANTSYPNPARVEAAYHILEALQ
# T2 sequence (P62593 24-286 limits assumed): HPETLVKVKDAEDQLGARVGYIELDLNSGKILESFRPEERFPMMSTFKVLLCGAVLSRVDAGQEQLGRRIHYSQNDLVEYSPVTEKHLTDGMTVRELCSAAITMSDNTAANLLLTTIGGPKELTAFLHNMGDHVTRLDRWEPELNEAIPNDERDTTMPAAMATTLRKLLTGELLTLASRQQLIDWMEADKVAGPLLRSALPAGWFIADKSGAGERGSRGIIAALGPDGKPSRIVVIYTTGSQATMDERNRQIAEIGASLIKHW
SMILES,half-life [1],inhibition diameter [2],inhibition diameter [3],inhibition diameter [4],inhibition diameter [5],inhibition diameter [6],inhibition diameter [7],inhibition diameter [8],inhibition diameter [9],inhibition diameter [10],inhibition diameter [11],IC50 [13],IC50 [14],inhibition diameter (cytotoxicity) [15],further results
"CC(O)C1C(=O)N2C(C(=O)O)=C(SCOC(C)(C)CN)C(C)C12 [Id, (4R,5S,6S)-3-((2-amino-1,1-dimethylethoxy)methylthio)-6-((1′R)-hydroxyethyl)-4-methyl-7-oxo-1-azabicyclo[3.2.0]hept-2-ene-2-carboxylic acid]",50 h,,,,,,,,,,,,,,
"CCN1CCN(CSC2=C(C(=O)[O-])N3C(=O)[C@H]([C@@H](C)O)[C@H]3[C@H]2C)C(=O)C1=O.[K+] [Ig, Potassium (4R,5S,6S)-3-((2,3-dioxo-4-ethyl-piperazinyl)methylthio)-6-((1′R)-hydroxyethyl)-4-methyl-7-oxo-1-azabicyclo[3.2.0]hept-2-ene-2-carboxylate]",,,,,,,,,,,,,,,"half-life of hydrolysis ([1]; buffer, pH 7.4): 42 h"
"CC(O)C1C(=O)N2C(C(=O)O)=C(SCOCCNC=N)C(C)C12 [Ic, (4R,5S,6S)-3-((2-(Formimidoylamino)ethoxv)methylthio)-((1′R)-hydroxyethyl)-4-methyl-7-oxo-1-azabicyclo[3.2.0]hept-2-ene-2-carboxylic acid]",35 h,33 mm,8 mm,30 mm,39 mm,35 mm,21 mm,25 mm,26 mm,13 mm,25 mm,,,,
"COCSC1=C(C(=O)O)N2C(=O)[C@H]([C@@H](C)O)[C@H]2[C@H]1C [Ia, Potassium (4R,5S,6S)-6-((1′R)-hydroxyethyl)-3-(methoxymethylthio)-4-methyl-7-oxo-1-azabicyclo[3.2.0]hept-2-ene-2-carboxylate]",50 h,,,,,,,,,,,4 nM,200 nM,,"concentration at 10 min ([12]; plasma): 5600 ng/mL; half-life ([12]; serum, 25 mg/kg, read-out: Approximative serum half-life): 0.417 h"
CC(O)C1C(=O)N2C(C(=O)O)=C(SCOCCN)C(C)C12 (centres unmarked) [Ib],50 h,33 mm,9 mm,30 mm,39 mm,35 mm,21 mm,26 mm,28 mm,17 mm,27 mm,8.5 nM,550 nM,0 mm,
"CC(C)(O/N=C(\C(=O)N[C@@H]1C(=O)N2C(C(=O)[O-])=C(C[n+]3ccccc3)CS[C@H]12)c1csc(N)n1)C(=O)O [CAZ, ceftazidime]",,,,,,,,,,,,,,,MIC [16]: 64 µg/mL; MIC [17]: > 64 µg/mL; MIC [18]: > 64 µg/mL; MIC [19]: 16 µg/mL; MIC [20]: > 64 µg/mL; MIC [21]: > 64 µg/mL
"CC(O)C1C(=O)N2C(C(=O)O)=C(SCNC(=O)CN)C(C)C12 [If, (4R,5S,6S)-3-((2-Aminoacetamido)methylthio-6-((1′R)-hydroxyethyl)-4-methyl-7-oxo-1-azabicyclo[3.2.0]hept-2-ene-2-carboxylic acid]",16 h,33 mm,12 mm,27 mm,33 mm,30 mm,20 mm,23 mm,25 mm,14 mm,18 mm,,,0 mm,
"CC(=O)NCSC1=C(C(=O)O)N2C(=O)[C@H]([C@@H](C)O)[C@H]2[C@H]1C [Ie, Potassium (4R,5S,6S)-3-(acetamidomethylthio)-((1′R)-hydroxyethyl)-4-methyl-7-oxo-1-azabicyclo[3.2.0]hept-2-ene-2-carboxylate]",40 h,34 mm,,32 mm,36 mm,32 mm,18 mm,27 mm,27 mm,,16 mm,6 nM,300 nM,0 mm,
